Test results reported in patent publication US8614223B2, “Pyrimidine hydroxy amide compounds as protein deacetylase inhibitors and methods of use thereof” (Acetylon Pharmaceuticals, Inc., priority 2010, dated 2013).

Assays:
[1] = target: HDAC6 (Homo sapiens (Human), UniProt Q9UBN7); settings: read-out: HDAC6 IC50
[2] = target: HDAC1 (Homo sapiens (Human), UniProt Q13547); assay: HDAC enzyme assay, HDAC1; settings: for HDAC1 fold over HDAC6 IC50 (selectivity for HDAC6): ratio HDAC1/HDAC6; for IC50: read-out: HDAC1 IC50
Sequence of HDAC1 (Q13547 whole entry): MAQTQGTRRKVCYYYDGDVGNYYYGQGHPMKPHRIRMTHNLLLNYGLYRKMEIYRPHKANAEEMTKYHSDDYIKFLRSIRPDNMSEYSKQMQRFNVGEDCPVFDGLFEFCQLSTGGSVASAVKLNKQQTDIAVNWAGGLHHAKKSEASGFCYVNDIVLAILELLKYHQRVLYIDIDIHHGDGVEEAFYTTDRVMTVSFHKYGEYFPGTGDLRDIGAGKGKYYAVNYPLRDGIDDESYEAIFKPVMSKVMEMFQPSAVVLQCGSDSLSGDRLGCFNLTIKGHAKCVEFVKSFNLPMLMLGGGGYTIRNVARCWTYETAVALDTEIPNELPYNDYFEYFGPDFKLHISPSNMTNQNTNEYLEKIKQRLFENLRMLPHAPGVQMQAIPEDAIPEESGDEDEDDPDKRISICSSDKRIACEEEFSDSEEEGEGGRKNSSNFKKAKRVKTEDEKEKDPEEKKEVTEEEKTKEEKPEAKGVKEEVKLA

[3] = target: HDAC2 (Homo sapiens (Human), UniProt Q92769); assay: HDAC enzyme assay, HDAC2; settings: for HDAC2 fold over HDAC6 IC50 (selectivity for HDAC6): ratio HDAC2/HDAC6; for IC50: read-out: HDAC2 IC50
Sequence of HDAC2 (Q92769 whole entry): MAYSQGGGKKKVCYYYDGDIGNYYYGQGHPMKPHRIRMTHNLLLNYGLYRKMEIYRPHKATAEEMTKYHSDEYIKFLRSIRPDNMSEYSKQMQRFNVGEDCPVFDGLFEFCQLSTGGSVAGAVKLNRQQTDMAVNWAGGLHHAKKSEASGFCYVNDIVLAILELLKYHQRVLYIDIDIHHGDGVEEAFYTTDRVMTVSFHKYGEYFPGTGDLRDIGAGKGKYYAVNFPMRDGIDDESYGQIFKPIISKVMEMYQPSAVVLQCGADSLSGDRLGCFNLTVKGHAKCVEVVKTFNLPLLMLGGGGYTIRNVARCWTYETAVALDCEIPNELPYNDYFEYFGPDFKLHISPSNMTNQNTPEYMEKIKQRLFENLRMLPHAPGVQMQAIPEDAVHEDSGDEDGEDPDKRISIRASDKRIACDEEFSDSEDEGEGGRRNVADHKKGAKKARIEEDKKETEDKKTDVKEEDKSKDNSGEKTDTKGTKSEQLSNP

[4] = target: HDAC3 (Homo sapiens (Human), UniProt O15379); assay: HDAC enzyme assay, HDAC3; settings: for HDAC3 fold over HDAC6 IC50 (selectivity for HDAC6): ratio HDAC3/HDAC6; for IC50: read-out: HDAC3 IC50
Sequence of HDAC3 (O15379 whole entry): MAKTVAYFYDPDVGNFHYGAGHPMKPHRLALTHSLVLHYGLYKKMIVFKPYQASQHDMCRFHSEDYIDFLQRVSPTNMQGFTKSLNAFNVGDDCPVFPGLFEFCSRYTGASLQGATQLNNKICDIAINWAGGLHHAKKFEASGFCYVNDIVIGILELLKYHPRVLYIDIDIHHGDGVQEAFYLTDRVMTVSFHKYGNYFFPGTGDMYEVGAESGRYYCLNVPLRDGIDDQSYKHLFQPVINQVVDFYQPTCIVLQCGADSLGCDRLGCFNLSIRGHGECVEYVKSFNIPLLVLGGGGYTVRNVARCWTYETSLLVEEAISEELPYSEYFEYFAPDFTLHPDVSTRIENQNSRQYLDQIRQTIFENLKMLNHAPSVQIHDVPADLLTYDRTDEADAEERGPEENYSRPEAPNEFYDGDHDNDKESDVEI
Sequence of HDAC3 (Q9Y618 395-489 partner): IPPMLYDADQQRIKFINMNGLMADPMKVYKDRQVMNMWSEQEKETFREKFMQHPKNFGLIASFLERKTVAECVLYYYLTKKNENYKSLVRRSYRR

Sequence of HDAC6 (Q9UBN7 whole entry): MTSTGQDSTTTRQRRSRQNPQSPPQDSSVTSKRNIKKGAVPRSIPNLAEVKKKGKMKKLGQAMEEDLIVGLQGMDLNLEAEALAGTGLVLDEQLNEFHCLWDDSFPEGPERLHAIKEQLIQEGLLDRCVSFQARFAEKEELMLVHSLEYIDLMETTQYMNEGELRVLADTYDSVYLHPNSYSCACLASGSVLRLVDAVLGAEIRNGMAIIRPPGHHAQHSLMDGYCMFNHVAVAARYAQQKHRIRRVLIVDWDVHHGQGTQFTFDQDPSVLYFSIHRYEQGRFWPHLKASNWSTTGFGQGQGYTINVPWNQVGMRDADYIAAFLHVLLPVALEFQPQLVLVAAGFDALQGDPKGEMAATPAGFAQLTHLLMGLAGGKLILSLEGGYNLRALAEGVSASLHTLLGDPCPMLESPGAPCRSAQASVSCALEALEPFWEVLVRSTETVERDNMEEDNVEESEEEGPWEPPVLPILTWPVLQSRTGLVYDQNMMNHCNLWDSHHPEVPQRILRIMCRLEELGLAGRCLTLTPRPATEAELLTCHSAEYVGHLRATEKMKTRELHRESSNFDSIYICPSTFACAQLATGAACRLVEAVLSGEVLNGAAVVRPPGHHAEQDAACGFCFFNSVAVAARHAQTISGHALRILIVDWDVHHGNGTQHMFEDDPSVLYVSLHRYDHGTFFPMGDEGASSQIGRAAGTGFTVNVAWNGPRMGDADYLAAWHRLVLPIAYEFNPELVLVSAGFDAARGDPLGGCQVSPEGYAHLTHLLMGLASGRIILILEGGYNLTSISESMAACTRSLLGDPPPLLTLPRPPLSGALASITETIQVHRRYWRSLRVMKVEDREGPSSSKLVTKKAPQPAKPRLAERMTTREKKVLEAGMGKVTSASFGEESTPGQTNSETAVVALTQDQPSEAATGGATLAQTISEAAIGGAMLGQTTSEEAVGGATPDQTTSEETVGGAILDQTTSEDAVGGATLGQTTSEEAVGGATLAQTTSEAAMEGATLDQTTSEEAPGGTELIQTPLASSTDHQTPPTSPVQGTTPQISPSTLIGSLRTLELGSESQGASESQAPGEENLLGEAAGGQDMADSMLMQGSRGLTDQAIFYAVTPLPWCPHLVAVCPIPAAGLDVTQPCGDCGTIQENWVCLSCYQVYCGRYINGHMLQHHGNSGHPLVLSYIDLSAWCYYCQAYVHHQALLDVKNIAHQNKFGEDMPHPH

In the case of `O=C(NO)c1cnc(Nc2cc(F)cc(C(F)(F)F)c2)nc1` [Compound 26], the IC50 [1] is reported as 5 nM, the “HDAC1 fold over HDAC6 IC50 (selectivity for HDAC6)” value [2] is reported as “(31.4x)” and the IC50 [2] is reported as 159 nM. The “HDAC2 fold over HDAC6 IC50 (selectivity for HDAC6)” value [3] was “(68.3x)”, the IC50 [3] was 345 nM and the “HDAC3 fold over HDAC6 IC50 (selectivity for HDAC6)” value [4] was “(53.4x)”. The IC50 [4] was 270 nM.

For `O=C(NO)c1cnc(Nc2cc(Cl)cc(OC(F)(F)F)c2)nc1` [Compound 27], the IC50 [1] was 7 nM, the “HDAC1 fold over HDAC6 IC50 (selectivity for HDAC6)” value [2] was “(63.5x)” and the IC50 [2] was 417 nM. For the same compound, the “HDAC2 fold over HDAC6 IC50 (selectivity for HDAC6)” value [3] was “(106.6x)”, the IC50 [3] was 700 nM and the “HDAC3 fold over HDAC6 IC50 (selectivity for HDAC6)” value [4] was “(113.5x)”. The IC50 [4] was 745 nM.

For `O=C(NO)c1cnc(Nc2cccc(-c3ccccc3)c2)nc1` [Compound 28], the IC50 [1] was 4 nM, the “HDAC1 fold over HDAC6 IC50 (selectivity for HDAC6)” value [2] was “(30.7x)” and the IC50 [2] was 111 nM. For the same compound, the “HDAC2 fold over HDAC6 IC50 (selectivity for HDAC6)” value [3] was “(51.5x)”, the IC50 [3] was 187 nM and the “HDAC3 fold over HDAC6 IC50 (selectivity for HDAC6)” value [4] was “(50.1x)”. For the same compound, the IC50 [4] was 181 nM.

With `O=C(NO)c1cnc(Nc2cccc(N3CCOCC3)c2)nc1` [Compound 29] the IC50 [1] was 8 nM, the “HDAC1 fold over HDAC6 IC50 (selectivity for HDAC6)” value [2] was “(60.9x)” and the IC50 [2] was 464 nM. The “HDAC2 fold over HDAC6 IC50 (selectivity for HDAC6)” value [3] was “(106x)”, the IC50 [3] was 808 nM and the “HDAC3 fold over HDAC6 IC50 (selectivity for HDAC6)” value [4] was “(68.2x)”. The IC50 [4] was 520 nM.

For `O=C(NO)c1cnc(Nc2cccc(-c3ccncc3)c2)nc1` [Compound 30], the IC50 [1] was 3 nM, the “HDAC1 fold over HDAC6 IC50 (selectivity for HDAC6)” value [2] was “(27.5x)” and the IC50 [2] was 88 nM. For the same compound, the “HDAC2 fold over HDAC6 IC50 (selectivity for HDAC6)” value [3] was “(56.5x)”, the IC50 [3] was 181 nM and the “HDAC3 fold over HDAC6 IC50 (selectivity for HDAC6)” value [4] was “(44.1x)”. For the same compound, the IC50 [4] was 141 nM.

`Cc1cc(Nc2ncc(C(=O)NO)cn2)ccn1` [Compound 31] was tested, and the IC50 [1] was 10 nM, the “HDAC1 fold over HDAC6 IC50 (selectivity for HDAC6)” value [2] was “(19.8x)” and the IC50 [2] was 206 nM. For the same compound, the “HDAC2 fold over HDAC6 IC50 (selectivity for HDAC6)” value [3] was “(34.7x)”, the IC50 [3] was 362 nM and the “HDAC3 fold over HDAC6 IC50 (selectivity for HDAC6)” value [4] was “(21.1x)”. The IC50 [4] was 221 nM.

With `O=C(NO)c1cnc(NCc2ccccc2Cl)nc1` [Compound 33] the IC50 [1] was 2 nM, the “HDAC1 fold over HDAC6 IC50 (selectivity for HDAC6)” value [2] was “(56.4x)” and the IC50 [2] was 110 nM. For the same compound, the “HDAC2 fold over HDAC6 IC50 (selectivity for HDAC6)” value [3] was “(116.2x)”, the IC50 [3] was 226 nM and the “HDAC3 fold over HDAC6 IC50 (selectivity for HDAC6)” value [4] was “(86.7x)”. For the same compound, the IC50 [4] was 169 nM.

In the case of `O=C(NO)c1cnc(NCc2cccc(Cl)c2)nc1` [Compound 34], the IC50 [1] is reported as 1 nM, the “HDAC1 fold over HDAC6 IC50 (selectivity for HDAC6)” value [2] is reported as “(15.5x)” and the IC50 [2] is reported as 20 nM. The “HDAC2 fold over HDAC6 IC50 (selectivity for HDAC6)” value [3] was “(21.5x)”, the IC50 [3] was 28 nM and the “HDAC3 fold over HDAC6 IC50 (selectivity for HDAC6)” value [4] was “(25.7x)”. For the same compound, the IC50 [4] was 34 nM.

In the case of `O=C(NO)c1cnc(NCc2ccccc2)nc1` [Compound 35], the IC50 [1] is reported as 2 nM, the “HDAC1 fold over HDAC6 IC50 (selectivity for HDAC6)” value [2] is reported as “(42.3x)” and the IC50 [2] is reported as 77 nM. The “HDAC2 fold over HDAC6 IC50 (selectivity for HDAC6)” value [3] was “(76.2x)”, the IC50 [3] was 140 nM and the “HDAC3 fold over HDAC6 IC50 (selectivity for HDAC6)” value [4] was “(70x)”. It also gave an IC50 [4] of 128 nM.

In the case of `O=C(NO)c1cnc(NCc2ccc(Cl)cc2)nc1` [Compound 36], the IC50 [1] is reported as 2 nM, the “HDAC1 fold over HDAC6 IC50 (selectivity for HDAC6)” value [2] is reported as “(17.5x)” and the IC50 [2] is reported as 40 nM. The “HDAC2 fold over HDAC6 IC50 (selectivity for HDAC6)” value [3] was “(31.2x)”, the IC50 [3] was 71 nM and the “HDAC3 fold over HDAC6 IC50 (selectivity for HDAC6)” value [4] was “(33x)”. For the same compound, the IC50 [4] was 75 nM.

For `O=C(NO)c1cnc(NCc2ccc(C(F)(F)F)cc2)nc1` [Compound 37], the IC50 [1] was 5 nM, the “HDAC1 fold over HDAC6 IC50 (selectivity for HDAC6)” value [2] was “(17.8x)” and the IC50 [2] was 89 nM. For the same compound, the “HDAC2 fold over HDAC6 IC50 (selectivity for HDAC6)” value [3] was “(25.4x)”, the IC50 [3] was 127 nM and the “HDAC3 fold over HDAC6 IC50 (selectivity for HDAC6)” value [4] was “(29.8x)”. It also gave an IC50 [4] of 149 nM.

`O=C(NO)c1cnc(NCc2ccccc2C(F)(F)F)nc1` [Compound 38] was tested, and the IC50 [1] was 7 nM, the “HDAC1 fold over HDAC6 IC50 (selectivity for HDAC6)” value [2] was “(67.5x)” and the IC50 [2] was 470 nM. For the same compound, the “HDAC2 fold over HDAC6 IC50 (selectivity for HDAC6)” value [3] was “(103.5x)”, the IC50 [3] was 720 nM and the “HDAC3 fold over HDAC6 IC50 (selectivity for HDAC6)” value [4] was “(128.1x)”. The IC50 [4] was 891 nM.

`O=C(NO)c1cnc(NCCc2ccccc2Cl)nc1` [Compound 39] was tested, and the IC50 [1] was 4 nM, the “HDAC1 fold over HDAC6 IC50 (selectivity for HDAC6)” value [2] was “(62.6x)” and the IC50 [2] was 263 nM. For the same compound, the “HDAC2 fold over HDAC6 IC50 (selectivity for HDAC6)” value [3] was “(92.2x)”, the IC50 [3] was 387 nM and the “HDAC3 fold over HDAC6 IC50 (selectivity for HDAC6)” value [4] was “(117.9x)”. It also gave an IC50 [4] of 495 nM.

For `O=C(NO)c1cnc(NCc2cccc(C(F)(F)F)c2)nc1` [Compound 40], the IC50 [1] was 2 nM, the “HDAC1 fold over HDAC6 IC50 (selectivity for HDAC6)” value [2] was “(19.8x)” and the IC50 [2] was 38 nM. The “HDAC2 fold over HDAC6 IC50 (selectivity for HDAC6)” value [3] was “(28.7x)”, the IC50 [3] was 56 nM and the “HDAC3 fold over HDAC6 IC50 (selectivity for HDAC6)” value [4] was “(36.2x)”. For the same compound, the IC50 [4] was 70 nM.

With `O=C(NO)c1cnc(NCCc2cccc(Cl)c2)nc1` [Compound 42] the IC50 [1] was 4 nM, the “HDAC1 fold over HDAC6 IC50 (selectivity for HDAC6)” value [2] was “(19.5x)” and the IC50 [2] was 78 nM. The “HDAC2 fold over HDAC6 IC50 (selectivity for HDAC6)” value [3] was “(24.1x)”, the IC50 [3] was 97 nM and the “HDAC3 fold over HDAC6 IC50 (selectivity for HDAC6)” value [4] was “(32.3x)”. The IC50 [4] was 130 nM.
